Measurements from patent publication US20200318079A1, “ACTIVITY-DEPENDENT EXPRESSION CONSTRUCTS AND METHODS OF USING THE SAME” (The Board of Trustees of the Leland Stanford Junior …, priority 2016, published 2020).

Test system: c-Fos regulatory region
Experiment: Activity-dependent expression of a reporter driven by c-Fos regulatory regions
Conditions: comparison of three regulatory regions
Excerpt: The activity-dependent expression of a reporter construct driven by a regulatory region containing 761 bp of 5′ mouse c-Fos non-coding sequence, mouse c-Fos exon 1 and mouse c-Fos intron 1, as depicted in FIG. 9 (SEQ ID NO:7) was compared to: (1) the activity-dependent expression of the same reporter driven by the c-Fos 5′-non-coding sequence depicted in FIG. 10 (SEQ ID NO:1) and (2) the activity-dependent expression of the same reporter driven by the entire c-Fos gene followed by an IRES as depicted in FIG. 11 (SEQ ID NO:29).

With “SEQ ID NO:7: reporter driven by regulatory region containing 761 bp of 5′ mouse c-Fos non-coding sequence, mouse c-Fos exon 1 and intron 1” the “activity-dependent expression of the reporter” value was “best for high, non-leaky expression”.
